The assay relates to Blatta orientalis. The note with it: Blatta orientalis; for synergizing effect on Azamethiphos: synergist applied with Azamethiphos; for synergizing effect on Cypermethrin: synergist applied with Cypermethrin. Here is the method:
Method: Contact test on non-porous tile measuring 400 cm^2 at a temperature of 28° C. Test duration: up to 72 hours after exposure of the insect to the insecticidal active substance.
(§1) Three tests were performed in parallel, A, B, and C, as follows: • A) Comparative. 1 ml of Composition 2 was applied to the tile. After waiting for the complete evaporation of the solvent, 10 cockroaches were placed on top of the treated tile, starting the test. • B) According to the invention. 1 ml of Composition 8b was distributed on the tile. After waiting for the complete evaporation of the solvent, 1 ml of Composition 2 was added to the same tile. Subsequently, after waiting for the solvent to evaporate, 10 cockroaches were placed on top of the treated tile, starting the test. • C) According to the invention. 1 ml of Composition 8b was distributed on a tile. After waiting for the complete evaporation of the solvent, 10 cockroaches were placed for 30 minutes on top of the treated tile. At the end of the 30 minutes, the cockroaches were transferred to an untreated area.
Method: Contact test on non-porous tile measuring 400 cm^2 at a temperature of 28° C. Test duration: up to 120 hours after exposure of the insect to the insecticidal active substance.
as §1, with “4a” for “2”, “8d” for “8b”, “After” for “Subsequently, after”
Six tests were performed in parallel, A, B, C, D, E and F, as follows: • A) Comparative. 1 ml of Composition 9b was distributed on the tile. After waiting for the complete evaporation of the solvent, 1 ml of Composition 4a was added to the same tile. Subsequently, after waiting for the solvent to evaporate, 10 cockroaches were placed on top of the treated tile, starting the test. • B) Comparative. 1 ml of Composition 9b was distributed on a tile. After waiting for the complete evaporation of the solvent, 10 cockroaches were placed for 30 minutes on top of the treated tile. At the end of the 30 minutes, the cockroaches were transferred to an untreated area. […] 1 ml of Composition 10b was distributed on the tile. After waiting for the complete evaporation of the solvent, 1 ml of Composition 4a was added to the same tile. Subsequently, after waiting for the solvent to evaporate, 10 cockroaches were placed on top of the treated tile, starting the test. • D) Comparative. 1 ml of Composition 10b was distributed on a tile. After waiting for the complete evaporation of the solvent, 10 cockroaches were placed for 30 minutes on top of the treated tile. At the end of the 30 minutes, the cockroaches were transferred to an untreated area. […] 1 ml of Composition 8d was distributed on the tile. After waiting for the complete evaporation of the solvent, 1 ml of Composition 4a was added to the same tile. Subsequently, after waiting for the solvent to evaporate, 10 cockroaches were placed on top of the treated tile, starting the test. • F) According to the invention. 1 ml of Composition 8d was distributed on a tile. After waiting for the complete evaporation of the solvent, 10 cockroaches were placed for 30 minutes on top of the treated tile. At the end of the 30 minutes, the cockroaches were transferred to an untreated area.

Like-named read-outs stand apart in the source and are kept apart here.

Consider `CCCCCCCC/C=C\CCCCCCCCOC(C)=O` [Oleyl acetate], for which the “synergizing effect on Azamethiphos” value is listed as “fine synergizing effect” and the “synergizing effect on Cypermethrin” value was “excellent-fine synergizing effect”.
`CCCCCCCCOC(=O)OCCCCCCCC` [dioctyl carbonate]: the “synergizing effect on Azamethiphos” value is reported as “good synergizing effect” and the “synergizing effect on Cypermethrin” value is “synergizing effect”.
Regarding Oleic alcohol [Oleic alcohol 95%], the “synergizing effect on Azamethiphos” value is “fine synergizing effect” and the “synergizing effect on Cypermethrin” value is given as “fine synergizing effect”. Where the note is “listed as oleic alcohol 95%”, the “synergizing effect on Cypermethrin” value is “superior to that shown with PBO”.

The record behind these values is patent publication US20260215418A1, “HYDROCARBON ALCOHOLS AND THEIR DERIVATIVES AS SYNERGISTS IN PESTICIDE ACTIVITY” (priority 2022, published 2026).
